Results reported in US8263638B2, “Dosing regimens for ion channel modulating compounds” (priority 2004, dated 2012).

Tests used:
[1] = COMPOUND A plasma concentrations in acute AF study (Example 2); type: in vivo, human
Description: A Holter rhythm strip continuously monitored ECG, vital signs (blood pressure and heart rate, BP and HR, respectively) and O2 saturation were recorded every 2 min from the start of infusion to 5 min after, as well as at 15, 30, 60, 120, 240, 360, and 480 min and at discharge and one-week follow-up. Twelve-lead ECGs were obtained before dosing and every minute during infusion to 5 min after, as well as at 15, 30, 60, 120, 240, 360, and 480 min and at discharge, 24 h and one-week follow-up, and at the time of arrhythmia termination or significant rhythm changes. Venous blood samples were drawn for COMPOUND A plasma concentrations at 0, 15, 30, 120, 240, 480 min discharge and at AF termination or significant adverse events.
COMPOUND A doses were infused over 10 min as indicated in the text. Initially a 2 mg/kg infusion was given and if required an additional 3 mg/kg was infused 30 min later in the RSD-2 group. Time is shown relative to the end of the first infusion (T1).

[2] = tested on: atrial fibrillation duration from 3 hours to 45 days; experiment: Atrial Arrhythmia Conversion Trial 1, Phase III (Example 6); type: in vivo, human; conditions: for median time to conversion: responders
Description: This study was conducted to assess the efficacy and safety of COMPOUND A in the conversion of atrial fibrillation to sinus rhythm in humans. The study was a randomized, double-blind, placebo-controlled Phase III study.
Patients were randomized in a 2:1 ratio (COMPOUND A:placebo) and stratified by atrial fibrillation duration. The entire group of patients (pts) had atrial fibrillation duration from 3 hours to 45 days. One subgroup had atrial fibrillation duration from 3 hours to 7 days. Another subgroup had atrial fibrillation duration from 8 days to 45 days.
The primary endpoint of the study was the proportion of patients with atrial fibrillation duration of 3 hours to 7 days who had treatment-induced conversion of atrial fibrillation to sinus rhythm with 90 minutes. Secondary endpoints include the time-to-conversion of atrial fibrillation to sinus rhythm in patients with atrial fibrillation of 3 hours to 7 days and the proportion of patients with termination of atrial fibrillation within 90 minutes in the subgroup of patients with 8 days to 45 days of atrial fibrillation duration and in the entire group of patients with 3 hours to 45 days of atrial fibrillation duration.
Dosing was as follows: Placebo or 3.0 mg/kg of COMPOUND A was administered by infusion over a 10 minute period, followed by a 15-minute observation period. If atrial fibrillation was not terminated, placebo or 2.0 mg/kg of COMPOUND A was adminstered by infusion over a 10 minute period.
The patient population was randomized (n=[…]). […] There were 220 patients in the subgroup having 3 hours to 7 days atrial fibrillation. Of these 220 patients, 75 received placebo and 145 received COMPOUND A. There were 116 patients in the subgroup having 8 days to 45 days atrial fibrillation. Of these 116 patients, 40 received placebo and 76 received COMPOUND A.

[3] = patients that received only the 2 mg/kg infusion
[4] = 30-day follow-up period after dosing, n = 221
[5] = 24 hour period post-dosing, holter, n = 221
[6] = 24 hour time period following dosing, n = 221
[7] = non-responders with attempted cardioversion

SMILES: COc1ccc(CCO[C@@H]2CCCC[C@H]2N2CC[C@@H](O)C2)cc1OC.Cl [COMPOUND A, (1R,2R)-2-[(3R)-hydroxypyrrolidinyl]-1-(3,4-dimethoxyphenethoxy)cyclohexane monohydrochloride]
- Plasma drug levels at 24 h post-infusion (below the limit of detection) ([1]; RSD-1, majority of patients): < 5 ng/mL
- mean plasma levels at 24 h ([1]; RSD-2 group): 17 ng/mL
- Mean peak plasma levels ([1]; patients that received both 0.5 and 1.0 mg/kg): 1.9 µg/mL
- Mean peak plasma levels ([1]; patients that received both the 2.0 and 3.0 mg/kg infusions): 5.8 µg/mL
- mean peak plasma levels at the end of infusion [1, 3]: 2.6 µg/mL
- mean terminal elimination half life [1, 3]: 3.1 h
- median plasma level at the time of AF conversion [1, 3]: 1.3 µg/mL
- serious adverse events: Cardiac disorders (%) [2, 4]: 10.0%
- serious adverse events: Cardiac disorders (number) [2, 4]: 22
- serious adverse events: Infections and infestations (%) [2, 4]: 1.4%
- serious adverse events: Infections and infestations (number) [2, 4]: 3
- serious adverse events: Nervous system disorders (%) [2, 4]: 0.0%
- serious adverse events: Nervous system disorders (number) [2, 4]: 0
- serious adverse events: Respiratory, thoracic and mediastinal disorders (%) [2, 4]: 1.8%
- serious adverse events: Respiratory, thoracic and mediastinal disorders (number) [2, 4]: 4
- serious adverse events: Total (%) [2, 4]: 13.1%
- serious adverse events: Total (number) [2, 4]: 29
- serious adverse events: Vascular disorders (%) [2, 4]: 1.4%
- serious adverse events: Vascular disorders (number) [2, 4]: 3
- Monomorphic sustained ventricular tachycardia (%) [2, 5]: 0.0%
- Monomorphic sustained ventricular tachycardia (number) [2, 5]: 0
- Monomorphic unsustained aberrant condition (%) [2, 5]: 1.4%
- Monomorphic unsustained aberrant condition (number) [2, 5]: 3
- Monomorphic unsustained ventricular tachycardia (%) [2, 5]: 0.9%
- Monomorphic unsustained ventricular tachycardia (number) [2, 5]: 2
- Polymorphic sustained ventricular tachycardia (%) [2, 5]: 0.0%
- Polymorphic sustained ventricular tachycardia (number) [2, 5]: 0
- Polymorphic unsustained aberrant condition (%) [2, 5]: 0.0%
- Polymorphic unsustained aberrant condition (number) [2, 5]: 0
- Polymorphic unsustained ventricular tachycardia (%) [2, 5]: 0.0%
- Polymorphic unsustained ventricular tachycardia (number) [2, 5]: 0
- Torsades de Pointes (%) [2, 5]: 0.0%
- Torsades de Pointes (number) [2, 5]: 0
- Ventricular Rhythm >=5 beats: Total (%) [2, 5]: 2.3%
- Ventricular Rhythm >=5 beats: Total (number) [2, 5]: 5
- Ventricular escape rhythm (%) [2, 5]: 0.0%
- Ventricular escape rhythm (number) [2, 5]: 0
- treatment-emergent adverse event: Atrial fibrillation (%) [2, 6]: 4%
- treatment-emergent adverse event: Atrial fibrillation (number) [2, 6]: 8
- treatment-emergent adverse event: Cough (%) [2, 6]: 5%
- treatment-emergent adverse event: Cough (number) [2, 6]: 11
- treatment-emergent adverse event: Dysgeusia (%) [2, 6]: 30%
- treatment-emergent adverse event: Dysgeusia (number) [2, 6]: 66
- treatment-emergent adverse event: Hypotension (%) [2, 6]: 6%
- treatment-emergent adverse event: Hypotension (number) [2, 6]: 14
- treatment-emergent adverse event: Nausea (%) [2, 6]: 9%
- treatment-emergent adverse event: Nausea (number) [2, 6]: 20
- treatment-emergent adverse event: Paraesthesia (%) [2, 6]: 11%
- treatment-emergent adverse event: Paraesthesia (number) [2, 6]: 24
- treatment-emergent adverse event: Pruritus (%) [2, 6]: 6%
- treatment-emergent adverse event: Pruritus (number) [2, 6]: 13
- treatment-emergent adverse event: Sneezing (%) [2, 6]: 16%
- treatment-emergent adverse event: Sneezing (number) [2, 6]: 36
- responders converted after the first dosing ([2]; both the short duration subgroup and the entire group): 76%
- responders relapsed into atrial fibrillation in the first 24 hours post-dosing ([2]; in vivo): one
- Electrical cardioversion was attempted (%) ([2]; n = 221): 43%
- Electrical cardioversion was attempted (number) ([2]; n = 221): 96
- Successfully converted by electrical cardioversion (%) [2, 7]: 85%
- Successfully converted by electrical cardioversion (number) [2, 7]: 82
- median time to conversion ([2]; entire group (3 hrs-45 days atrial fibrillation)): 11.5 min
- median time to conversion ([2]; short duration subgroup (3 hrs-7 days atrial fibrillation)): 11 min
